Assays:
Type in all cases: in vivo
[1] = tested on: blackgrass (Alopecurus myosuroides); experiment: Test A1 preemergence, blackgrass
Procedure, shortened: (§1)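 Both timings started from seed in a loam-sand blend. Preemergence pots got a directed soil application immediately; postemergence pots were sprayed when seedlings had one or two leaves and stood 2–10 cm. Each compound was prepared in a non-phytotoxic solvent plus surfactant.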

[2] = tested on: goosegrass (Eleusine indica); experiment: Test A1 preemergence, goosegrass
Procedure, shortened: as §1

[3] = tested on: wheat (Triticum aestivum); experiment: Test A1 preemergence, wheat
Procedure, shortened: as §1

[4] = tested on: blackgrass (Alopecurus myosuroides); experiment: Test A1 postemergence, blackgrass; settings: Postemergence, 0 to 100 scale (0 no effect, 100 complete control)
Procedure, shortened: (§2)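 Plants were grown in a loam soil/sand blend, with test chemicals formulated in a non-phytotoxic solvent mixture containing surfactant. Preemergence treatment (corn) was a directed soil spray at planting. Postemergence treatment was applied to plants 2 to 10 cm tall at the one- to two-leaf stage.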

[5] = tested on: Foxtail, Giant (giant foxtail, Setaria faberi); experiment: Test A1 postemergence, Foxtail, Giant; settings: Postemergence
Procedure, shortened: as §2

[6] = tested on: goosegrass (Eleusine indica); experiment: Test A1 postemergence, goosegrass; settings: Postemergence
Procedure, shortened: as §2

[7] = tested on: Pigweed, Palmer (palmer amaranth, palmer pigweed, Amaranthus palmeri); experiment: Test A1 postemergence, Pigweed, Palmer; settings: Postemergence
Procedure, shortened: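 Postemergence species (ragweed, Palmer pigweed, wild oat) were sprayed at one- to two-leaf stage, 2 to 10 cm tall. Corn was treated preemergence by directed soil spray. Both used a loam soil/sand blend and compounds in a non-phytotoxic solvent mixture with surfactant.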

[8] = tested on: Ryegrass, Italian (Italian ryegrass, Lolium multiflorum); experiment: Test A1 postemergence, Ryegrass, Italian; settings: Postemergence
Procedure, shortened: as §2

[9] = tested on: horseweed (Erigeron canadensis); experiment: Test A1 postemergence, horseweed; settings: Postemergence
Procedure, shortened: as §2

rice (Oryza sativa) = experiment: Test B1 flooded paddy test, rice; settings: 250 g ai/ha, Flood, applied to paddy water, 2-leaf stage, visually evaluated after 10 to 14 days
From the text: A dash (-) response means no test result.

[10] = 31 g ai/ha, 0 to 100 scale (0 no effect, 100 complete control)
[11] = 125 g ai/ha, 0 to 100 scale, 0 no effect, 100 complete control
[12] = 31 g ai/ha, 0 to 100 scale (0 no effect, 100 complete control), 10 days

## Cc1cc(C)c(C2=NOC3COCC23)cc1NS(=O)(=O)C(F)(F)F (centres unmarked) [Compound 297]
[1]; [10]
  Plant response rating, Blackgrass: 20
[1]; [11]
  Plant response rating, Blackgrass: 40
[2]; [10]
  Plant response rating, Goosegrass: 70
[2]; [11]
  Plant response rating, Goosegrass: 90
[3]; [10]
  Plant response rating, Wheat: 20
[3]; [11]
  Plant response rating, Wheat: 100
[4]; 31 g ai/ha, 10 days
  Plant response rating, Blackgrass: 0
[4]; 125 g ai/ha
  Plant response rating, Blackgrass: 0
[5]; [12]
  Plant response rating, Foxtail, Giant: 10
[5]; 125 g ai/ha, 0 to 100 scale
  Plant response rating, Foxtail, Giant: 60
[6]; [12]
  Plant response rating, Goosegrass: 0
[6]; 125 g ai/ha, 0 to 100 scale
  Plant response rating, Goosegrass: 70
[7]; [12]
  Plant response rating, Pigweed, Palmer: 10
[7]; 125 g ai/ha, 0 to 100 scale
  Plant response rating, Pigweed, Palmer: 20
[8]; [12]
  Plant response rating, Ryegrass, Italian: 0
[8]; 125 g ai/ha, 0 to 100 scale
  Plant response rating, Ryegrass, Italian: 60
[9]; [12]
  Plant response rating, Horseweed: 50
[9]; 125 g ai/ha, 0 to 100 scale
  Plant response rating, Horseweed: 80
Rice (Oryza sativa)
  Plant response rating, Rice (0 to 100 scale, 0 is no effect, 100 is complete control): 0

## Cc1c(C(=O)N2CCC(F)CC2)cc(N(COC(=O)C(C)(C)C)S(=O)(=O)C(F)(F)F)c(C)c1C [Compound 361]
[1]; [10]
  Plant response rating, Blackgrass: 0
[1]; [11]
  Plant response rating, Blackgrass: 0
[2]; [10]
  Plant response rating, Goosegrass: 10
[2]; [11]
  Plant response rating, Goosegrass: 100
[3]; [10]
  Plant response rating, Wheat: 0
[3]; [11]
  Plant response rating, Wheat: 0
[4]; 31 g ai/ha, 10 days
  Plant response rating, Blackgrass: 0
[4]; 125 g ai/ha
  Plant response rating, Blackgrass: 0
[5]; [12]
  Plant response rating, Foxtail, Giant: 10
[5]; 125 g ai/ha, 0 to 100 scale
  Plant response rating, Foxtail, Giant: 50
[6]; [12]
  Plant response rating, Goosegrass: 0
[6]; 125 g ai/ha, 0 to 100 scale
  Plant response rating, Goosegrass: 30
[7]; [12]
  Plant response rating, Pigweed, Palmer: 10
[7]; 125 g ai/ha, 0 to 100 scale
  Plant response rating, Pigweed, Palmer: 20
[8]; [12]
  Plant response rating, Ryegrass, Italian: 0
[8]; 125 g ai/ha, 0 to 100 scale
  Plant response rating, Ryegrass, Italian: 0
[9]; [12]
  Plant response rating, Horseweed: 70
[9]; 125 g ai/ha, 0 to 100 scale
  Plant response rating, Horseweed: 90
Rice (Oryza sativa)
  Plant response rating, Rice (0 to 100 scale, 0 is no effect, 100 is complete control): 35

## Cc1c(C(=O)N2CCCCC2)cc(N(COC(=O)C(C)(C)C)S(=O)(=O)C(F)(F)F)c(C)c1C [Compound 329, [[(Trifluoromethyl)sulfonyl][2,3,4-trimethyl-5-(1-piperidinylcarbonyl)phenyl]amino]methyl 2,2-dimethylpropanoate]
[1]; [10]
  Plant response rating, Blackgrass: 0
[1]; [11]
  Plant response rating, Blackgrass: 0
[2]; [10]
  Plant response rating, Goosegrass: 20
[2]; [11]
  Plant response rating, Goosegrass: 100
[3]; [10]
  Plant response rating, Wheat: 0
[3]; [11]
  Plant response rating, Wheat: 0
[4]; 31 g ai/ha, 10 days
  Plant response rating, Blackgrass: 0
[4]; 125 g ai/ha
  Plant response rating, Blackgrass: 30
[5]; [12]
  Plant response rating, Foxtail, Giant: 10
[5]; 125 g ai/ha, 0 to 100 scale
  Plant response rating, Foxtail, Giant: 70
[6]; [12]
  Plant response rating, Goosegrass: 0
[6]; 125 g ai/ha, 0 to 100 scale
  Plant response rating, Goosegrass: 30
[7]; [12]
  Plant response rating, Pigweed, Palmer: 10
[7]; 125 g ai/ha, 0 to 100 scale
  Plant response rating, Pigweed, Palmer: 10
[8]; [12]
  Plant response rating, Ryegrass, Italian: 0
[8]; 125 g ai/ha, 0 to 100 scale
  Plant response rating, Ryegrass, Italian: 0
[9]; [12]
  Plant response rating, Horseweed: 20
[9]; 125 g ai/ha, 0 to 100 scale
  Plant response rating, Horseweed: 90
Rice (Oryza sativa)
  Plant response rating, Rice (0 to 100 scale, 0 is no effect, 100 is complete control): 20

## Cc1cc(C)c(N(C(=O)OCC(C)C)S(=O)(=O)C(F)(F)F)cc1C1=NOC2CCCC12 (centres unmarked) [Compound 299]
[1]; [10]
  Plant response rating, Blackgrass: 0
[1]; [11]
  Plant response rating, Blackgrass: 30
[2]; [10]
  Plant response rating, Goosegrass: 60
[2]; [11]
  Plant response rating, Goosegrass: 90
[3]; [10]
  Plant response rating, Wheat: 0
[3]; [11]
  Plant response rating, Wheat: 70
[4]; 31 g ai/ha, 10 days
  Plant response rating, Blackgrass: 0
[4]; 125 g ai/ha
  Plant response rating, Blackgrass: 0
[5]; [12]
  Plant response rating, Foxtail, Giant: 0
[5]; 125 g ai/ha, 0 to 100 scale
  Plant response rating, Foxtail, Giant: 30
[6]; [12]
  Plant response rating, Goosegrass: 30
[6]; 125 g ai/ha, 0 to 100 scale
  Plant response rating, Goosegrass: 40
[7]; [12]
  Plant response rating, Pigweed, Palmer: 10
[7]; 125 g ai/ha, 0 to 100 scale
  Plant response rating, Pigweed, Palmer: 10
[8]; [12]
  Plant response rating, Ryegrass, Italian: 30
[8]; 125 g ai/ha, 0 to 100 scale
  Plant response rating, Ryegrass, Italian: 50
[9]; [12]
  Plant response rating, Horseweed: 0
[9]; 125 g ai/ha, 0 to 100 scale
  Plant response rating, Horseweed: 30
Rice (Oryza sativa)
  Plant response rating, Rice (0 to 100 scale, 0 is no effect, 100 is complete control): 0

## Cc1c(NS(=O)(=O)C(F)(F)F)cc(C(=O)N(C)C)c(C)c1Cl [Compound 287]
[1]; [10]
  Plant response rating, Blackgrass: 0
[1]; [11]
  Plant response rating, Blackgrass: 30
[2]; [10]
  Plant response rating, Goosegrass: 70
[2]; [11]
  Plant response rating, Goosegrass: 90
[3]; [10]
  Plant response rating, Wheat: 0
[3]; [11]
  Plant response rating, Wheat: 30
[4]; 31 g ai/ha, 10 days
  Plant response rating, Blackgrass: 0
[4]; 125 g ai/ha
  Plant response rating, Blackgrass: 0
[5]; [12]
  Plant response rating, Foxtail, Giant: 0
[5]; 125 g ai/ha, 0 to 100 scale
  Plant response rating, Foxtail, Giant: 0
[6]; [12]
  Plant response rating, Goosegrass: 0
[6]; 125 g ai/ha, 0 to 100 scale
  Plant response rating, Goosegrass: 60
[7]; [12]
  Plant response rating, Pigweed, Palmer: 0
[7]; 125 g ai/ha, 0 to 100 scale
  Plant response rating, Pigweed, Palmer: 40
[8]; [12]
  Plant response rating, Ryegrass, Italian: 0
[8]; 125 g ai/ha, 0 to 100 scale
  Plant response rating, Ryegrass, Italian: 60
[9]; [12]
  Plant response rating, Horseweed: 20
[9]; 125 g ai/ha, 0 to 100 scale
  Plant response rating, Horseweed: 40
Rice (Oryza sativa)
  Plant response rating, Rice (0 to 100 scale, 0 is no effect, 100 is complete control): 0

Reference: US20230278972A1, “SUBSTITUTED HALOALKYL SULFONANILIDE HERBICIDES” (FMC Corporation, priority 2020, published 2023)
